SMILES strings stand for the structures. Some results are limits rather than exact numbers.

The source of these data is article PMC12648443, “Modifications of NU-9, a potent protein aggregation inhibitor. Properties and activity in a cellular model of amyotrophic lateral sclerosis” (Bioorganic chemistry, 2025).

For the first experiment, the system named is MG132-induced mutant SOD1 intracellular aggregation in PC12-SOD1^G85R YFP cells. In words: Protection against MG132-induced mut-SOD1 intracellular aggregation (fluorescence microscopy). To be noted: PC12-SOD1^G85R YFP cells, 0.7 μM MG132, 72 h; Inactive = no decrease of aggregates at 10 μM vs vehicle. Type of experiment: cell-based. The protocol:
The PC12 Tet-Off-SOD1^G85R YFP cells were cultured in DMEM media supplemented with 10 % horse serum, 5 % Tet-approved FBS, 1 % Penstrep, 1× L-glutamine, 200 μg/mL hygromycin, 100 μg/mL G418, with 1 μg/mL Doxycycline and were incubated at 37 °C in humidified air with […] until 90–95 % confluency. To induce the expression of SOD1^G85R YFP, the Doxycycline was removed at least 4 days before the experiment. To remove the Doxycycline, the media was removed, and the cells were washed 3 times with 1xPBS. The cells were then cultured in standard culture media without Doxycycline. To set up the assay, the cells were then seeded into 96-well cell culture plates (Greiner Bio-One Catalog #655090) at a concentration of 50,000 cells/well with a final volume of 100 μL/well and incubated in the CO2 incubator at 37 °C for 24 h. The media were removed from the cells and replaced with 100 μL of media containing 0.1 % DMSO or compounds, and incubated in the CO2 incubator at 37 °C for 6 h. The media were then replaced with fresh 100 μL of media containing the diluted compounds with 0.7 μM (−)-MG-132, and the plates were incubated for 72 h under culture conditions. After 72 h, the cells were stained with Hoescht 33,342 (55 μg/mL, 10 μL/well) and imaged (lex = 358, 513 nm) using a Molecular Devices ImageXpress Micro Confocal High-Content Imaging System equipped with a 40× objective. […] Image binning was set to 2. DAPI fluorescence was captured using an exposure time of 300 ms, and FITC fluorescence was captured using an exposure time of 400 ms. A 13-plane z-series was acquired for each field of view with a step size of 3 μm. For each condition, 2 sets of 9 images were generated in a 3 × 3 grid to separately image the SOD1^G85R YFP proteins and the nuclei stained with Hoescht 33,342. Image analysis was performed with MetaXpress software (Molecular Devices) using the Transfluor module. Parameters for puncta detection (aggregates) were set with a minimum pit width of 2 μm and a maximum pit width of 5 μm. Signal intensity thresholds were defined as 700 grayscale units above the local background. The analysis provided the average area of each cell that is covered by puncta (pit/cell), which are indicated by bright green spots on the SOD1^G85RYFP image set.
The assay was performed in triplicate for each condition tested, and wells containing the media with vehicle (0.1 % DMSO) or (−)-MG-132 alone were used as controls representing the minimum and maximum aggregate formation. […] The data for EC50 determination was treated with Prism and fitted using a semi-logarithmic curve for determination of the EC50 values of NU9 and compounds 4, 6, 20 and 21.
With `Cl.N[C@@H]1C[C@H]2C[C@@H](C1)[C@H](Cc1cc(C(F)(F)F)cc(C(F)(F)F)c1)O2` [Compound 19, (1R,3S,5R,7S)-7-(3,5-Bis(trifluoromethyl)benzyl)-6-oxabicyclo[3.2.1]octan-3-aminium chloride], the “EC50 against MG132-induced mutant SOD1 intracellular aggregation” value was “Inactive”.

As to `OC1CC2CC(C1)C(Cc1cc(C(F)(F)F)cc(C(F)(F)F)c1)O2` (centres unmarked) [Compound 15], the “EC50 against MG132-induced mutant SOD1 intracellular aggregation” value is “Inactive”.

For the compound `Cl.N[C@H]1C[C@H]2C[C@@H](C1)[C@H](Cc1cc(C(F)(F)F)cc(C(F)(F)F)c1)O2` [Compound 18, (1R,3R,5R,7S)-7-(3,5-Bis(trifluoromethyl)benzyl)-6-oxabicyclo[3.2.1]octan-3-aminium chloride], the “EC50 against MG132-induced mutant SOD1 intracellular aggregation” value is recorded as “Inactive”.

Regarding `O[C@@H]1CC([C@H](O)Cc2cc(C(F)(F)F)cc(C(F)(F)F)c2)C[C@H](O)C1` (stereo partly drawn) [Compound 5, (1R,3S)-5-((R)-2-(3,5-Bis(trifluoromethyl)phenyl)-1-hydroxyethyl)cyclohexane-1,3-diol], the “EC50 against MG132-induced mutant SOD1 intracellular aggregation” value is reported as “Inactive”.

On to `OC1CC2CC(C1)C(Cc1cc(C(F)(F)F)cc(C(F)(F)F)c1)O2` (centres unmarked) [Compound 14], for which the “EC50 against MG132-induced mutant SOD1 intracellular aggregation” value is on record as “Inactive”.

Turning to `O=C1CC(=O)CN(CCc2cc(C(F)(F)F)cc(C(F)(F)F)c2)C1` [Compound 10, 1-(3,5-Bis(trifluoromethyl)phenethyl)piperidine-3,5-dione], the EC50 – broadly, the concentration giving half of the maximal effect – was above 10 µM.

In the case of `OC1CC2CC(C1)C(c1cc(C(F)(F)F)cc(C(F)(F)F)c1)O2` (centres unmarked) [Compound 17], the “EC50 against MG132-induced mutant SOD1 intracellular aggregation” value is given as “Inactive”.

On to `OC1CC2CC(C1)C(Cc1cc(C(F)(F)F)cc(C(F)(F)F)c1)O2` (centres unmarked) [Compound 13], for which the “EC50 against MG132-induced mutant SOD1 intracellular aggregation” value was “Inactive”.

Consider `O=C1CC2CC(C1)C(Cc1cc(C(F)(F)F)cc(C(F)(F)F)c1)O2` (centres unmarked) [Compound 11], for which the “EC50 against MG132-induced mutant SOD1 intracellular aggregation” value is reported as “Inactive”.

Compound `O=C1CC(=O)C(Cc2cc(C(F)(F)F)cc(C(F)(F)F)c2)C1` (centres unmarked) [Compound 8, 4-(3,5-Bis(trifluoromethyl)benzyl)cyclopentane-1,3-dione] displayed an EC50 above 10 µM.

As to `COC1=CC(=O)C(Cc2cc(C(F)(F)F)cc(C(F)(F)F)c2)C1` (centres unmarked) [Compound 7, 5-(3,5-Bis(trifluoromethyl)benzyl)-3-methoxycyclopent-2-en-1-one], the “EC50 against MG132-induced mutant SOD1 intracellular aggregation” value is listed as “Inactive”.

In the case of `O=C1CC2CC(C1)C(c1cc(C(F)(F)F)cc(C(F)(F)F)c1)O2` (centres unmarked) [Compound 16], the EC50 was above 10 µM.

In the case of `O=C1CC2CC(C1)C(Cc1cc(C(F)(F)F)cc(C(F)(F)F)c1)O2` (centres unmarked) [Compound 12], the “EC50 against MG132-induced mutant SOD1 intracellular aggregation” value is recorded as “Inactive”.

Staying with this experiment, now noted: at 10 μM, 72 h.
For `O=C1CC2CC(C1)C(c1cc(C(F)(F)F)cc(C(F)(F)F)c1)O2` (centres unmarked) [Compound 16], the “decrease in MG132-induced SOD-1^G85R aggregate formation” value is “mild anti-aggregation activity”.
